Results: US10618914B2 (UNIVERSITY OF PITTSBURGH—OF THE COMMONWEALTH SYSTEM OF …, priority 2015, dated 2020)
Read-outs that look alike come from different tables or passages of the source. Each block holds one compound with its values, some of them ahead of it.

How the values were obtained:
Type in all cases: cell-based
STAT3 = assay: HCS STAT3 assay
Cal33 cells = assay: Cal33 growth inhibition
STAT1 = STAT1 assay (selectivity counter-screen)
[1] = tested on: HNSCC cell lines 686LN, FADU, CAL33, OSC19; assay: Growth inhibition on HNSCC cell line panel; conditions: range over cell lines 686LN
OSC19 = assay: Growth inhibition on HNSCC cell line OSC19; conditions: average of 2 experiments; read-out: 0SC19 GI50
FADU = assay: Growth inhibition on HNSCC cell line FADU; conditions: average of 2 experiments
686LN = assay: Growth inhibition on HNSCC cell line 686LN; conditions: average of 2 experiments
[2] = Table 5, * average of 2 experiments, read-out: STAT3 IC50 (converted)
[3] = Table 5, * average of 2 experiments
[4] = Table 4, read-out: STAT3 IC50 (converted)
[5] = Table 2, read-out: STAT3 (IC50)
[6] = Table 2, read-out: Cal33 (IC50)

IC50 (STAT3; [2]): 8.2 ± 2.2 µM
SMILES: CC1Sc2nnc(-c3[nH]nc4c3CCC4)n2N=C1c1ccc(Cl)c(Cl)c1 (stereo not shown) [Cmpd 19]
GI50 (Cal33 cells; [3]): 1.9 ± 1.2 µM
IC50 (STAT1; [3]): > 50 µM

IC50 (STAT3; [4]): 6.8 ± 3.7 µM
SMILES: Clc1ccc(C2=Nn3c(nnc3-c3[nH]nc4c3CCC4)SC2)cc1Cl [1a]
GI50 [1]: 14 to 26 µM
IC50 (STAT1; Table 4): > 50 µM

SMILES: CC1=Nn2c(nnc2-c2[nH]nc3c2CCC3)SC1 [12a]
IC50 (STAT3; [4]): > 50 µM
IC50 (STAT1; Table 4): > 50 µM

IC50 (STAT3; [2]): 7.5 µM
SMILES: CCCCC1Sc2nnc(-c3[nH]nc4c3CCC4)n2N=C1c1ccc(Cl)c(Cl)c1 (stereo not shown) [Cmpd 29]
GI50 (Cal33 cells; [3]): 3.3 µM
IC50 (STAT1; [3]): > 50 µM

SMILES: C1CCC(C2=Nn3c(nnc3-c3[nH]nc4c3CCC4)SC2)CC1 [13a]
IC50 (STAT3; [4]): > 30 µM
IC50 (STAT1; Table 4): > 50 µM

IC50 (STAT3; [2]): 4.1 µM
SMILES: CCC(C)C1Sc2nnc(-c3[nH]nc4c3CCC4)n2N=C1c1ccc(OC)cc1 (stereo not shown) [Cmpd 27]
GI50 (Cal33 cells; [3]): 3.5 ± 1.5 µM
IC50 (STAT1; [3]): > 50 µM

SMILES: c1cc(C2=Nn3c(nnc3-c3[nH]nc4c3CCC4)SC2)ccn1 [9a]
IC50 (STAT3; [4]): > 50 µM
IC50 (STAT1; Table 4): > 50 µM

SMILES: Clc1ccc(C2=Nn3c(nnc3-c3[nH]nc4c3CCC4)SC2)cc1 [2a]
IC50 (STAT1; Table 4): > 50 µM

SMILES: C1=Nn2c(nnc2-c2[nH]nc3c2CCC3)SC1 [11a]
IC50 (STAT3; [4]): > 50 µM
IC50 (STAT1; Table 4): > 50 µM

SMILES: COc1ccc(C2=Nn3c(nnc3-c3[nH]nc4c3CCC4)SC2C)cc1 (stereo not shown) [compound 20]
GI50 (OSC19): 3.1 µM
GI50 (Cal33 cells; Table 6, average of 2 experiments): 0.18 µM
GI50 (FADU): 1.3 µM
GI50 (686LN): 0.88 µM

SMILES: Clc1cccc(C2=Nn3c(nnc3-c3[nH]nc4c3CCC4)SC2)c1 [6a]
IC50 (STAT1; Table 4): > 50 µM

SMILES: Clc1cccc(C2=Nn3c(nnc3-c3cc(-c4ccccc4)n[nH]3)SC2)c1 [6b]
IC50 (STAT3; [4]): 5.6 µM
IC50 (STAT1; Table 4): 45.9 µM

SMILES: c1ccc(-c2cc(-c3nnc4n3N=C(C3CCCCC3)CS4)[nH]n2)cc1 [13b]
IC50 (STAT3; [4]): > 50 µM
IC50 (STAT1; Table 4): > 50 µM

SMILES: c1ccc(C2=Nn3c(nnc3-c3[nH]nc4c3CCC4)SC2)cc1 [7a]
IC50 (STAT3; [4]): 21.2 ± 23.5 µM
IC50 (STAT1; Table 4): > 50 µM

SMILES: c1ccc(-c2cc(-c3nnc4n3N=C(c3ccncc3)CS4)[nH]n2)cc1 [9b]
IC50 (STAT3; [4]): > 50 µM
IC50 (STAT1; Table 4): > 50 µM

IC50 (STAT3; [2]): 18.6 µM
SMILES: CC1(C)Sc2nnc(-c3[nH]nc4c3CCC4)n2N=C1c1ccc(Cl)c(Cl)c1 [Cmpd 32]
GI50 (Cal33 cells; [3]): > 50 µM
IC50 (STAT1; [3]): > 50 µM

SMILES: CCC(C)C1Sc2nnc(-c3cc(-c4ccccc4)n[nH]3)n2N=C1c1ccc(OC)cc1 (stereo not shown) [Cmpd 28]
GI50 (Cal33 cells; [3]): 0.5 µM
IC50 (STAT1; [3]): > 50 µM

SMILES: Clc1ccc(C2=Nn3c(nnc3-c3[nH]nc4c3CCC4)SC2)s1 [10a]
IC50 (STAT1; Table 4): > 50 µM

IC50 (STAT3; [2]): 3.8 ± 0.8 µM
SMILES: CC1Sc2nnc(-c3cc(-c4ccc(F)cc4)n[nH]3)n2N=C1c1ccccc1 (stereo not shown) [Cmpd 22]
GI50 (Cal33 cells; [3]): 36.3 ± 9.7 µM
IC50 (STAT1; [3]): > 30 µM

SMILES: C1=Nn2c(nnc2-c2cc(-c3ccccc3)n[nH]2)SC1 [11b]
IC50 (STAT3; [4]): > 50 µM
IC50 (STAT1; Table 4): > 50 µM

SMILES: Clc1ccc(C2=Nn3c(nnc3-c3cc(-c4ccccc4)n[nH]3)SC2)s1 [10b]
IC50 (STAT3; [4]): > 50 µM
IC50 (STAT1; Table 4): > 50 µM

SMILES: CC1=Nn2c(nnc2-c2cc(-c3ccccc3)n[nH]2)SC1 [12b]
IC50 (STAT3; [4]): > 50 µM
IC50 (STAT1; Table 4): > 50 µM

SMILES: CC1Sc2nnc(-c3cc(-c4ccccc4)n[nH]3)n2N=C1c1ccccc1 (stereo not shown) [compound 10260]
IC50 (STAT3; [5]): 4.8 µM
IC50 (Cal33 cells; [6]): 42.7 µM

IC50 (STAT3; [5]): 7.8 µM
SMILES: CC1Sc2nnc(-c3nn(C)c4c3CCC4)n2N=C1c1ccc(Cl)c(Cl)c1 (stereo not shown) [compound 10469]
IC50 (Cal33 cells; [6]): 3.1 µM

SMILES: CC1Sc2nnc(-c3cc(-c4ccccc4)n[nH]3)n2N=C1c1ccccc1 (stereo not shown) [compound 10261]
IC50 (STAT3; [5]): 12.3 µM
IC50 (Cal33 cells; [6]): 40 µM

IC50 (STAT3; [5]): 27 µM
SMILES: COc1ccc(C2=Nn3c(nnc3-c3[nH]nc4c3CN(Cc3ccccc3)C4)SC2C)cc1 (stereo not shown) [compound 10512]
IC50 (Cal33 cells; [6]): 4.6 µM

IC50 (STAT3; [5]): 46.1 µM
SMILES: COc1ccc(C2=Nn3c(nnc3-c3nn(C)c4c3CCC4)SC2C)cc1 (stereo not shown) [compound 10420]
IC50 (Cal33 cells; [6]): 0.38 µM

IC50 (STAT3; Table 1, read-out: STAT3 (mean IC50)): 27.6 µM
IC50 (STAT3; [5]): 27.6 µM
SMILES: COc1ccc(C2=Nn3c(nnc3-c3ccccc3)SC2C)cc1 (stereo not shown) [UPCDC10352]
IC50 (Cal33 cells; Homo sapiens, CAL-33, Table 1, read-out: Growth Inhibition Cal33 (mean IC50)): 0.21 µM
IC50 (Cal33 cells; Homo sapiens, CAL-33, Table 2, read-out: Cal33 (IC50)): 0.21 µM

IC50 (STAT3; [5]): 17.9 µM
SMILES: COC(=O)CC1Sc2nnc(-c3cc(-c4ccccc4)n[nH]3)n2N=C1c1ccccc1 (stereo not shown) [compound 10423]
IC50 (Cal33 cells; [6]): 37.9 µM

IC50 (STAT3; [5]): 31.2 µM
SMILES: COc1ccc(C2=Nn3c(nnc3-c3[nH]nc4c3CCC4)SC2CCN)cc1 (stereo not shown) [compound 10383]
IC50 (Cal33 cells; [6]): 2.5 µM
